In paper PMC9851200, “Multiparameter phenotypic screening for endogenous TFEB and TFE3 translocation identifies novel chemical series modulating lysosome function” (Autophagy, 2022):

Experiments:
Format in all cases: binding
[1] = target: kinases (KINOMEscan panel) (Homo sapiens, UniProt Q5VT25)
[2] = target: kinases (KINOMEscan panel) (Homo sapiens, UniProt O00750); conditions: PIK3C2B; NEW KINOMEscan
[3] = target: kinases (KINOMEscan panel) (Homo sapiens, UniProt P0C1S8); conditions: WEE2; NEW KINOMEscan
[4] = target: kinases (KINOMEscan panel) (Homo sapiens, UniProt Q86UE8); conditions: kinase TLK2; NEW KINOMEscan
[5] = target: kinases (KINOMEscan panel) (Homo sapiens, UniProt O60674); conditions: JAK2(JH1domain-catalytic); NEW KINOMEscan
[6] = target: kinases (KINOMEscan panel) (Homo sapiens, UniProt P10721, T670I/V559D); conditions: NEW KINOMEscan
[7] = target: T1, kinases (KINOMEscan panel) (Homo sapiens, UniProt P43403); conditions: NEW KINOMEscan
T1 sequence (P43403 1-619): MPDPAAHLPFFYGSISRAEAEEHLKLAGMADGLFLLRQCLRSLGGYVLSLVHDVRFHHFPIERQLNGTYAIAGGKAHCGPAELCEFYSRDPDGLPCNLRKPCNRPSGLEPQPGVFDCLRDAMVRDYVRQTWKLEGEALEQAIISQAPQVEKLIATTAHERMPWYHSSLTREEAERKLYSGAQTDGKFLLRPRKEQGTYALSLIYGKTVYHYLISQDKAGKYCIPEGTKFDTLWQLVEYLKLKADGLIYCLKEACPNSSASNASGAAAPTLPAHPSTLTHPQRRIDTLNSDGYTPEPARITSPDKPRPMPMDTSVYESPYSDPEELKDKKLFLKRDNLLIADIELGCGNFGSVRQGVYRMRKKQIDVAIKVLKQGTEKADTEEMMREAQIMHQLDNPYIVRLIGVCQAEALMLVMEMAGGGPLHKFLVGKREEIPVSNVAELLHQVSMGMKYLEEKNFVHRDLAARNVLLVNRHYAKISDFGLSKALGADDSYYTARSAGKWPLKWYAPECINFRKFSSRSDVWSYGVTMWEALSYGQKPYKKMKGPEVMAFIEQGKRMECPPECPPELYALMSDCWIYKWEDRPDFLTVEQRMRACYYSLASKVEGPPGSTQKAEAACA

[8] = target: T2, kinases (KINOMEscan panel) (Homo sapiens, UniProt P54762); conditions: kinase EPHB1; NEW KINOMEscan
T2 sequence (P54762 18-984): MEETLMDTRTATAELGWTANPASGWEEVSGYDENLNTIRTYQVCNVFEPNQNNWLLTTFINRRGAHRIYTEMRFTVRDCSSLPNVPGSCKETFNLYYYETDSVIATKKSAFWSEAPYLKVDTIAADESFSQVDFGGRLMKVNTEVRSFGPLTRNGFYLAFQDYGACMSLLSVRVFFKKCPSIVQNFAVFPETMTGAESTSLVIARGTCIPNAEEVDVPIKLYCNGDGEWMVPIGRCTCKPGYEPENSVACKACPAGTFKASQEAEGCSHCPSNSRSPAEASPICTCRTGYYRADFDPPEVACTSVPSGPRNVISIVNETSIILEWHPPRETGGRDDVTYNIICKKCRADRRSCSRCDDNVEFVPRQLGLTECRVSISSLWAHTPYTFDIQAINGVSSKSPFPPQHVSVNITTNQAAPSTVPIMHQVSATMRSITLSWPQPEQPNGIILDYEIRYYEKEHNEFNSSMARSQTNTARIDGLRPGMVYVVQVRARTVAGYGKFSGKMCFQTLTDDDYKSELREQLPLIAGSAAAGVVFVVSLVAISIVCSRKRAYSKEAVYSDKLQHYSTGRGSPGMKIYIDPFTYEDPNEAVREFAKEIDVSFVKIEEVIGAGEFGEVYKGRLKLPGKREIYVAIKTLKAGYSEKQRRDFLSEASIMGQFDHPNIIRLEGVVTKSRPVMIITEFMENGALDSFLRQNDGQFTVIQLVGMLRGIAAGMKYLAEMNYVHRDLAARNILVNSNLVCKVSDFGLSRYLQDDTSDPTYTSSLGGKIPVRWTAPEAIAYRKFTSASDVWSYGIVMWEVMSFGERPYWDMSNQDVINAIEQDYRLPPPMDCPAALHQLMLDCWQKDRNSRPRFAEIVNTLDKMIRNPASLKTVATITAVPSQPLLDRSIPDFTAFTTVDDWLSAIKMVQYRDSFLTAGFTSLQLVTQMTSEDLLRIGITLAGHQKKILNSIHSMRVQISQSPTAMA

[9] = target: T3, kinases (KINOMEscan panel) (Homo sapiens, UniProt Q13546); conditions: kinase RIPK1; NEW KINOMEscan
T3 sequence (Q13546 1-671): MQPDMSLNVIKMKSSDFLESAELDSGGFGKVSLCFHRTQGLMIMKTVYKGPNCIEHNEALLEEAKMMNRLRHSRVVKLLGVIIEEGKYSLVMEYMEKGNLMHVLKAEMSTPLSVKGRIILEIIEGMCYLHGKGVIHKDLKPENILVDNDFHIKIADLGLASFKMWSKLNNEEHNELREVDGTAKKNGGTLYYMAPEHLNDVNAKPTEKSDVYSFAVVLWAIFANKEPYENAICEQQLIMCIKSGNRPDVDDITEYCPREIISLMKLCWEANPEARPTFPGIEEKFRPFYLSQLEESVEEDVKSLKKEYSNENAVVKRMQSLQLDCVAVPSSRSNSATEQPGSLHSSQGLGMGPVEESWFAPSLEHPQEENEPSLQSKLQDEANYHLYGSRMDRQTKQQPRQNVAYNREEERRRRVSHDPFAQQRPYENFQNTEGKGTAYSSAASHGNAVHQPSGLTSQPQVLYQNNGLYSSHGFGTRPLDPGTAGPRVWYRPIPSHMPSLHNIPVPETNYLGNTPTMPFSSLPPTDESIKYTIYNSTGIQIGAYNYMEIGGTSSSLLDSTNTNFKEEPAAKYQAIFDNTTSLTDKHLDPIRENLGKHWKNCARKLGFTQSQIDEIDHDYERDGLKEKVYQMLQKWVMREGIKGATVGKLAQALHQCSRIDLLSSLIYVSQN

Sequence of kinases (KINOMEscan panel) (Homo sapiens, UniProt O00750) (O00750 whole entry): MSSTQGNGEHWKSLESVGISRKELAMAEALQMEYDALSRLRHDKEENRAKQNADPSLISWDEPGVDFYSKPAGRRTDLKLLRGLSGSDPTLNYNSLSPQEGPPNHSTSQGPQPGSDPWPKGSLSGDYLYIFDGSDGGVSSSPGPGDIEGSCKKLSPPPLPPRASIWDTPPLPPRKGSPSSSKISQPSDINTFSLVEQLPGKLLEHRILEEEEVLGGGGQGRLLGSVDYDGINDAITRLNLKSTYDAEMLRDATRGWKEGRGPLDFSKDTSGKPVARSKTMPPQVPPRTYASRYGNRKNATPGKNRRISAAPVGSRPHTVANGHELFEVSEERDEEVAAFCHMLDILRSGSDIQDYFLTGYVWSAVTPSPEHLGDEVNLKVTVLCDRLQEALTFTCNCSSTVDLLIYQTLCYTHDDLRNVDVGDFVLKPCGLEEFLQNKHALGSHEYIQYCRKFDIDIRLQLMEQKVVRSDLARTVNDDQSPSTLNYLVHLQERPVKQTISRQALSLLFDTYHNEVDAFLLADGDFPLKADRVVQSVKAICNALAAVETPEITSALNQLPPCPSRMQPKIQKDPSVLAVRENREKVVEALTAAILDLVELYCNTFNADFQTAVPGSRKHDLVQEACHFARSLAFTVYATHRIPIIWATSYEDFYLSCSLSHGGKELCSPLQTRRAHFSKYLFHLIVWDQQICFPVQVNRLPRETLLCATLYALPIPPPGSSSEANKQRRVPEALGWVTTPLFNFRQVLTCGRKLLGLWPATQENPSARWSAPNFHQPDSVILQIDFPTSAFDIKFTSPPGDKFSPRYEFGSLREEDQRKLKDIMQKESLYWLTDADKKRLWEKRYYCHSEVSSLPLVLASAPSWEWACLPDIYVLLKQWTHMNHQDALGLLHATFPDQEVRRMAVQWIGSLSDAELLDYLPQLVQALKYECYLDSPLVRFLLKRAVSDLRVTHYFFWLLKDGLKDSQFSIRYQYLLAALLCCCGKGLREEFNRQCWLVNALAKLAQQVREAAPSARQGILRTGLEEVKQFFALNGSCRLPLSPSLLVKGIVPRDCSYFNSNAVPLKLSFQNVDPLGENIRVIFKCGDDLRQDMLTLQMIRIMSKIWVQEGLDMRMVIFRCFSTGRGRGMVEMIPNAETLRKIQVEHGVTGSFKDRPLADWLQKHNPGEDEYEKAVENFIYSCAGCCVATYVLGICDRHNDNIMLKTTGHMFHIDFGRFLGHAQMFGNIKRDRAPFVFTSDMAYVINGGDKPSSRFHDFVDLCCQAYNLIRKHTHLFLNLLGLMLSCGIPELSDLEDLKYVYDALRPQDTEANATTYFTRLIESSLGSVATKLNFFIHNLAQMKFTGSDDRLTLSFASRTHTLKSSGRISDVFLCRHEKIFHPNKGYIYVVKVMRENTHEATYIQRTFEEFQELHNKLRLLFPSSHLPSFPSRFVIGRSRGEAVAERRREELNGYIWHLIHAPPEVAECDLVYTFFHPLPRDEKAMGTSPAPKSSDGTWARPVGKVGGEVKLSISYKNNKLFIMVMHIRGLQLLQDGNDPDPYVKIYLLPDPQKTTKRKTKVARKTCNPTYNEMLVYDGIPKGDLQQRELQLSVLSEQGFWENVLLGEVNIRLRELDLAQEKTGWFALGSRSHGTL
Sequence of kinases (KINOMEscan panel) (Homo sapiens, UniProt Q86UE8) (Q86UE8 whole entry): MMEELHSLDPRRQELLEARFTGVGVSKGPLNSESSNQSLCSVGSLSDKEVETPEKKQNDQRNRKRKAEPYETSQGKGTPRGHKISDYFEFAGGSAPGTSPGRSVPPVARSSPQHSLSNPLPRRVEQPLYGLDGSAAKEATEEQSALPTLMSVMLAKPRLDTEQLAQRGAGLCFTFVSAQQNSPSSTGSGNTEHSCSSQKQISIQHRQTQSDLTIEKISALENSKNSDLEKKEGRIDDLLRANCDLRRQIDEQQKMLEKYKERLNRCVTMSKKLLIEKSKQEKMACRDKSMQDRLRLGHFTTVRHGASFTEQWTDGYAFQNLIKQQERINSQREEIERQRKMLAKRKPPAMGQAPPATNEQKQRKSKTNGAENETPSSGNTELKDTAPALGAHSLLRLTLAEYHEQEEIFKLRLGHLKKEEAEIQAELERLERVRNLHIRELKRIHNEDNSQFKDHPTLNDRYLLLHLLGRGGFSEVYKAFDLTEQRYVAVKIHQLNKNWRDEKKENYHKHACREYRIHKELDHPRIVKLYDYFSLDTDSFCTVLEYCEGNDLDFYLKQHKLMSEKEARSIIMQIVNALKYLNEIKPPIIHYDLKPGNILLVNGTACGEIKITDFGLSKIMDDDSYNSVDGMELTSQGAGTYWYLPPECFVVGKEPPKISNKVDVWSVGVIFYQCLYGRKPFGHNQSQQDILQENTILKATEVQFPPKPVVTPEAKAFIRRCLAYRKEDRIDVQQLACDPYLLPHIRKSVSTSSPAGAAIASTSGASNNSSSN
Sequence of kinases (KINOMEscan panel) (Homo sapiens, UniProt P0C1S8) (P0C1S8 whole entry): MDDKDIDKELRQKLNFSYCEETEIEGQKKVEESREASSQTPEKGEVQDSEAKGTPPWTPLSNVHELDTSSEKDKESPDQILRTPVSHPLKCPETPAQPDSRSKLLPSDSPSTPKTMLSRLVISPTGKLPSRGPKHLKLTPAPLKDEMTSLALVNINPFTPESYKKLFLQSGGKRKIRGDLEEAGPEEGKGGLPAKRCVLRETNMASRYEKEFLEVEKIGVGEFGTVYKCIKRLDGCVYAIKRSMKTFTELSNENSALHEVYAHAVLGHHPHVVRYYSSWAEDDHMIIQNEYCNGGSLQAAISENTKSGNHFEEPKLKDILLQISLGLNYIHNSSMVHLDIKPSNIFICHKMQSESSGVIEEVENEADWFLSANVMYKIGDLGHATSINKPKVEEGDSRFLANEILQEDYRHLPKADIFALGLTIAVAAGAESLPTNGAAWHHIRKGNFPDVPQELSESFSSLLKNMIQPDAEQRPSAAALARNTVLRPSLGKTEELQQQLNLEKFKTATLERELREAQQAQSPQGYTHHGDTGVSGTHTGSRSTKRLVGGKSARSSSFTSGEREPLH
Sequence of kinases (KINOMEscan panel) (Homo sapiens, UniProt O60674) (O60674 whole entry): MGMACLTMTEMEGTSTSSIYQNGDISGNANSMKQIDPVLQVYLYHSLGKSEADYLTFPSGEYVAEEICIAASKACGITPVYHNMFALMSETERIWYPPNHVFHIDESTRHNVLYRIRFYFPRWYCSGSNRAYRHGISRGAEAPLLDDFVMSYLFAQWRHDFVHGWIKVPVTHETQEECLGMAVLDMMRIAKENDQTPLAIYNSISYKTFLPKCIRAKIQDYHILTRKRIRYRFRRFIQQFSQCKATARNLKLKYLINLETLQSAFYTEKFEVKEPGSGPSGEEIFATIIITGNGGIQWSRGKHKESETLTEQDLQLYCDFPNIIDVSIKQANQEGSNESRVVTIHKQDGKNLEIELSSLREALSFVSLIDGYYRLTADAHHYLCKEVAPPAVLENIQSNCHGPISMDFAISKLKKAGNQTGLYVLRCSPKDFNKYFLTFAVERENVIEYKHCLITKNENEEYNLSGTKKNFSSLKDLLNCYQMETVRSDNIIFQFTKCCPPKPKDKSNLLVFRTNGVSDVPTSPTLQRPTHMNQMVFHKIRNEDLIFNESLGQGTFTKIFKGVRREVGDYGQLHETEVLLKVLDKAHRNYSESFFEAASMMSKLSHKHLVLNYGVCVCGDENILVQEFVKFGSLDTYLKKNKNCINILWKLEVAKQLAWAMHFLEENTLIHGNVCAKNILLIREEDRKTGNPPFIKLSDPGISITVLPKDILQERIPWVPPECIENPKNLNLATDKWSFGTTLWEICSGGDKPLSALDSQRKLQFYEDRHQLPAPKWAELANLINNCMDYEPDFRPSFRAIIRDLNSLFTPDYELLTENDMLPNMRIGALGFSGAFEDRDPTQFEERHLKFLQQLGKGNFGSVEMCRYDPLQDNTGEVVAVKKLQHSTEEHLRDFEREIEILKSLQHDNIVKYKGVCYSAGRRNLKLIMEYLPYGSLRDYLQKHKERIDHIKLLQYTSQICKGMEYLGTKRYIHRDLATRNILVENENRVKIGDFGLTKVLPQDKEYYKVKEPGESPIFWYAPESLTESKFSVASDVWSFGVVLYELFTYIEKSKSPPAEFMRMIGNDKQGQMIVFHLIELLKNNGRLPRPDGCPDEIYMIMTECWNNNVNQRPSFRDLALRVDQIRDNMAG
Sequence of kinases (KINOMEscan panel) (Homo sapiens, UniProt P10721, T670I/V559D) (P10721 26-976 V559D/T670I): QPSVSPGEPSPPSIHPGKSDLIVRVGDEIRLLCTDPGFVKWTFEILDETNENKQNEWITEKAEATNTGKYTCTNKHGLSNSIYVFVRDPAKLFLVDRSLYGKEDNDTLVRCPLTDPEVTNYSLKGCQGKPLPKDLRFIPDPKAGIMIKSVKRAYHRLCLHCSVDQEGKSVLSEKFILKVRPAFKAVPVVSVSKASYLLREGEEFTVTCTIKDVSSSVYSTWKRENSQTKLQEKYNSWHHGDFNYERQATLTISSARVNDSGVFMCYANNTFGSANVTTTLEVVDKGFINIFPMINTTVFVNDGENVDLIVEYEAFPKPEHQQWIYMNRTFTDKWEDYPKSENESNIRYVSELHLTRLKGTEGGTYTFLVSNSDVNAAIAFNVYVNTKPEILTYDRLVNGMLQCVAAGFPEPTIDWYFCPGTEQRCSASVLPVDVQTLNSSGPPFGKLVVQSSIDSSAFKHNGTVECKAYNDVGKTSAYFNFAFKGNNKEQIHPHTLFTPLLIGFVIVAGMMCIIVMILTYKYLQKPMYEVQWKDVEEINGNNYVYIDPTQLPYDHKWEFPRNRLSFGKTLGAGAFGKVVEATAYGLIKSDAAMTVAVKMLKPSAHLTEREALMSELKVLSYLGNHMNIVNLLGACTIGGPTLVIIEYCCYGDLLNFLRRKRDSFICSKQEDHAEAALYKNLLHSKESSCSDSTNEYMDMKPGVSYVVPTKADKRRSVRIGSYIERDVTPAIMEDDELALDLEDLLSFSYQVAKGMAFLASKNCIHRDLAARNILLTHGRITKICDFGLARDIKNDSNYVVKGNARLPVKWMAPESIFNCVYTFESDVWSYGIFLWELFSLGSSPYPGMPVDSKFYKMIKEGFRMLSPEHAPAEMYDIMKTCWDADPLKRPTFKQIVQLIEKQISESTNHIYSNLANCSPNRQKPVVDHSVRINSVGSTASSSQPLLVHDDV

SMILES	KINOMEscan CDC42BPA/MRCKA [1]	KINOMEscan PIK3C2B [2]	KINOMEscan WEE2 [3]	KINOMEscan TLK2 [4]	KINOMEscan JAK2(JH1domain-catalytic) [5]	KINOMEscan KIT(V559D,T670I) [6]	KINOMEscan ZAP70 [7]	KINOMEscan EPHB1 [8]	KINOMEscan RIPK1 [9]
Cc1cccc(-c2nc(N(C)c3ccc4ncsc4c3)c3ccccc3n2)n1 [NK-161]	5	0	5	0	0	14	20	14	0
Cc1cccc(-c2nc(Nc3ccc4nn(C)cc4c3)c3ccccc3n2)n1 [NK167]	0	0	0	0	0	13	14	0	2
